Experimental data as given in ChEMBL document CHEMBL6071137, “Synthesis and biological studies of 2-aminothiophene derivatives as positive allosteric modulators of glucagon-like peptide 1 receptor” (2024).
Activity calls are given as the source filed them. No cut-off for these calls is given here.

Key:
[1] = biological target: Glucagon-like peptide 1 receptor (Homo sapiens) (UniProt P43220); experiment: Positive allosteric modulation of human GLP-1 receptor in HEK cells expressing luciferase2P assessed as cAMP level incubated for 4 hrs by luciferase based assay relative to GLP-1; format: functional, cell-based; design: concentration or dose not given beside the values; conditions: filed as positive allosteric modulator
Chain of Glucagon-like peptide 1 receptor (Homo sapiens) (P43220 whole entry): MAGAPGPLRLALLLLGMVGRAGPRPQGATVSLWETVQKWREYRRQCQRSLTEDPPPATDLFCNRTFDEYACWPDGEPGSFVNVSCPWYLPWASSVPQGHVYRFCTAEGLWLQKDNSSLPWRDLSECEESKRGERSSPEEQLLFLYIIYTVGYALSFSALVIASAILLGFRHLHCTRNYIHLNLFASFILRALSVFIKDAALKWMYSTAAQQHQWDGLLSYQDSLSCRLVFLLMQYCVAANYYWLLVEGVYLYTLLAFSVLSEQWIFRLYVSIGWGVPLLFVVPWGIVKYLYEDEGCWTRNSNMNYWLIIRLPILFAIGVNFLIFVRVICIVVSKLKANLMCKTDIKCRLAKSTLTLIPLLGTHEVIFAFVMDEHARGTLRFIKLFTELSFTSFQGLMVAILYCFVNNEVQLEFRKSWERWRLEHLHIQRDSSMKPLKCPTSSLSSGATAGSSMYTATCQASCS

[2] = biological target: Glucagon-like peptide 1 receptor (Homo sapiens) (UniProt P43220); experiment: Positive allosteric modulation of human GLP-1 receptor in HEK cells expressing luciferase2P assessed as fold increase in GLP-1R activity incubated for 4 hrs in presence of GLP-1 by luciferase based assay relative to GLP-1 alone; format: cell-based; conditions: filed as positive allosteric modulator
INS1(832/13) = experiment: Induction of glucose dependent insulin secretion in rat INS-1 832/13 cells expressing GLP-1R at 5 uM starved for 2 hrs in KRB buffer followed by glucose addition and measured after 90 mins by ELISA; format: functional, cell-based
[3] = biological target: Glucagon-like peptide 1 receptor (Homo sapiens) (UniProt P43220); experiment: Positive allosteric modulation of human GLP-1 receptor in HEK cells expressing luciferase2P incubated for 4 hrs in presence of 10 nM of GLP-1 by luciferase based assay; format: cell-based; conditions: filed as positive allosteric modulator, dose 0.78-100 µM
[4] = biological target: Glucagon-like peptide 1 receptor (Homo sapiens) (UniProt P43220); experiment: Positive allosteric modulation of human GLP-1 receptor in HEK cells expressing luciferase2P at 5 uM incubated for 4 hrs in presence of varying concentrations of GLP-1 by luciferase based assay; format: cell-based; conditions: filed as positive allosteric modulator
[5] = Induction of glucose dependent insulin secretion in rat INS-1 832/13 cells expressing GLP-1R assessed as fold increase at 5 uM starved for 2 hrs in KRB buffer followed by 16.7 mM of glucose addition and measured after 90 mins in presence of GLP-1 by ELISA; format: functional, INS1(832/13); conditions: 1.5 h
Mus musculus [6] = experiment: Anti-diabetic activity against overnight-fasted male CD1 mouse assessed as reduction in blood glucose concentration at 10 mg/kg, ip preadministered with compound for 45 mins followed by 2.5 g/kg dextrose addition and measured after 60 mins by iGTT test; format: functional, organism-based; conditions: time 105.0 min
Mus musculus [7] = experiment: Anti-diabetic activity against overnight-fasted male CD1 mouse assessed as reduction in blood glucose concentration at 5 mg/kg, ip preadministered with compound for 45 mins followed by 2.5 g/kg dextrose addition and measured after 60 mins by iGTT test; format: functional, organism-based; conditions: time 105.0 min
Mus musculus [8] = experiment: Anti-diabetic activity against overnight-fasted male CD1 mouse assessed as reduction in blood glucose concentration at 5 to 30 mg/kg, ip preadministered with compound for 45 mins followed by 2.5 g/kg dextrose addition and measured after 60 mins by iGTT test; format: functional, organism-based; conditions: dose 5-30 mg/kg, time 105.0 min
Mus musculus [9] = experiment: Anti-diabetic activity against overnight-fasted male CD1 mouse assessed as reduction in blood glucose concentration at 10 to 30 mg/kg, ip preadministered with compound for 45 mins followed by 2.5 g/kg dextrose addition and measured after 30 mins by iGTT test; format: functional, organism-based; conditions: dose 10-30 mg/kg, time 75.0 min
Mus musculus [10] = experiment: (§1) Anti-diabetic activity against overnight-fasted male CD1 mouse assessed as reduction in blood glucose concentration at 10 to 30 mg/kg, ip preadministered with compound for 45 mins followed by 2.5 g/kg dextrose addition and measured after 60 mins by iGTT test relative to control; format: functional; design: scale not given: the % may be the effect or the level left; conditions: dose 10-30 mg/kg, time 105 min, 1.75 h
Mus musculus [11] = experiment: as §1, with “at 10 mg/kg, ip” for “at 10 to 30 mg/kg, ip”, “60 mins in the presence of sitagliptin by iGTT” for “60 mins by iGTT”; format: functional; design: scale not given: the % may be the effect or the level left; conditions: time 105 min, 1.75 h
[12] = biological target: T1, Vasoactive intestinal polypeptide receptor 1 (Homo sapiens) (UniProt P32241); experiment: Positive allosteric modulation of VIPR1 (unknown origin) transfected in HEK cells expressing luciferase2P assessed as increase in luciferase activity; format: cell-based; conditions: filed as positive allosteric modulator
T1 sequence (whole entry): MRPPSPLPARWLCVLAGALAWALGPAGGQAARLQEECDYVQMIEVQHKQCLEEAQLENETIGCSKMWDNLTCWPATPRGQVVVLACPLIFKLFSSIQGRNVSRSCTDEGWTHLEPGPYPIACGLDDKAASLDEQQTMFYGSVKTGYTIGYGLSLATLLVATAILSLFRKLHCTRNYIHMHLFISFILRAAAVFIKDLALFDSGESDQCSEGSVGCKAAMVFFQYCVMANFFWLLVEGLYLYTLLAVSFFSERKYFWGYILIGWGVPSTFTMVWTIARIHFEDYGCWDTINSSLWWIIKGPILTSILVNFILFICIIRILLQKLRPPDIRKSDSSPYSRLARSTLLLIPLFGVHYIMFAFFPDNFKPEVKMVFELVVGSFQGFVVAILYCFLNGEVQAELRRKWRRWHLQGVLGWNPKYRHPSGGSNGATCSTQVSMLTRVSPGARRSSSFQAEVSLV

[13] = biological target: T2, Gastric inhibitory polypeptide receptor (Homo sapiens) (UniProt P48546); experiment: Positive allosteric modulation of GIPR (unknown origin) transfected in HEK cells expressing luciferase2P assessed as increase in luciferase activity; format: cell-based; conditions: filed as positive allosteric modulator
T2 sequence (whole entry): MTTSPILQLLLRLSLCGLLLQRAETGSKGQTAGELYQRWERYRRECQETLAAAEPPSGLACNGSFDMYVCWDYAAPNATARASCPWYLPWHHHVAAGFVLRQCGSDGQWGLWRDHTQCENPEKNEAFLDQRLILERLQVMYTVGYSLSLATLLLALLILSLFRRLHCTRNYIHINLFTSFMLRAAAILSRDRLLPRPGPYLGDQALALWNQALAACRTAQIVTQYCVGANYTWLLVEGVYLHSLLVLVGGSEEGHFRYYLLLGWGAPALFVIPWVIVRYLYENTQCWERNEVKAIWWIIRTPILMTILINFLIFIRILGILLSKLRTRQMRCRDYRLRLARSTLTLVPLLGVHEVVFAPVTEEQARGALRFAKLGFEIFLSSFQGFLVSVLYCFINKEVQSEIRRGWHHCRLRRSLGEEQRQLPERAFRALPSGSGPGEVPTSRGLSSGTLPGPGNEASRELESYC

[14] = biological target: Glucagon receptor (Homo sapiens) (UniProt P47871); experiment: Positive allosteric modulation of glucagon receptor (unknown origin) transfected in HEK cells expressing luciferase2P assessed as increase in luciferase activity; format: cell-based; conditions: filed as positive allosteric modulator
Chain of Glucagon receptor (Homo sapiens) (P47871 whole entry): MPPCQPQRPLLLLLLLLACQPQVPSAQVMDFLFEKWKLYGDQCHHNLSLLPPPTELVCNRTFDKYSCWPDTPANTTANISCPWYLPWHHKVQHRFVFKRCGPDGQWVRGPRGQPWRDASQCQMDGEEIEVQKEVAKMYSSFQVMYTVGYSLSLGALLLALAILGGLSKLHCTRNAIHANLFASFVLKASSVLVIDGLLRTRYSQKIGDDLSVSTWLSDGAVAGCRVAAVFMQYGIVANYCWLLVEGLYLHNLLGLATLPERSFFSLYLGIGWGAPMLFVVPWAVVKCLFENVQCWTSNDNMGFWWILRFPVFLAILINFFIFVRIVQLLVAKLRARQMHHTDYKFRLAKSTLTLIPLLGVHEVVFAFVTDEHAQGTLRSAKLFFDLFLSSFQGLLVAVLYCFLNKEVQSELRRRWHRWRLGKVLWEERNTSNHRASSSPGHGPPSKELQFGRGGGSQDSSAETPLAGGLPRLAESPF

SMILES	Activity [1] [%]	fold change (FC) [2]	other results
CCOC(=O)c1c(N)sc2c1CC(C)(C)CC2	133	> 2	–
CN1CCc2c(sc(N)c2C(=O)c2ccc(Cl)cc2)C1	124	> 2	–
CCOC(=O)c1c(N)sc2c1CCN(C(C)=O)C2	147	> 2	–
CCOC(=O)c1c(N)sc2c1CCN(C)C2	75.7	> 2	–
CCCC1CCc2c(sc(N)c2C(=O)OCC)C1 (racemic)	157	> 2	–
C=CCOC(=O)N1CCc2c(sc(N)c2C(=O)c2ccccc2)C1	247	> 2	Activity (INS1(832/13)): Active; Activity [3]: Dose-Dependent Effect; Activity [4]: Active; fold change (FC) [5]: >2
CCOC(=O)c1c(N)sc2c1C(C)CCC2 (racemic)	82	> 2	–
CCOC(=O)c1c(N)sc2c1CCSC2	192	> 2	–
CCOC(=O)c1c(N)sc2c1CCC(C(F)(F)F)C2 (racemic)	183	> 2	–
CCN1CCc2c(sc(N)c2C(=O)c2ccc(C)cc2)C1	99.3	> 2	–
CCOC(=O)c1c(N)sc2c1CCN(S(=O)(=O)C1CC1)C2	106	> 2	–
Cc1ccc(C(=O)c2c(N)sc3c2CCN(C(=O)OCc2ccccc2)C3)cc1	98.1	> 2	–
CCOC(=O)c1c(N)sc2c1CCN(C(=O)OC(C)(C)C)C2	164	> 2	–
CCOC(=O)N1CCc2c(sc(N)c2C(=O)c2ccc(C)cc2)C1	98.1	> 2	–
Cc1ccc(C(=O)c2c(N)sc3c2CCC(C)(C)C3)cc1	268	> 2	Activity (INS1(832/13)): Active; Activity (Mus musculus [6]): Active; Activity (Mus musculus [7]): Active; Activity (Mus musculus [8]): Active; Activity (Mus musculus [9]): Active; Activity (Mus musculus [10]): 50%; Activity (Mus musculus [11]): ~75%; Activity [3]: Dose-Dependent Effect; Activity [4]: Active; fold change (FC) [5]: >2; Activity [12]: Active; Activity [13]: Active; Activity [14]: Active
Cc1ccc(C(=O)c2c(N)sc3c2CCOC3)cc1	118	> 2	–
CCOC(=O)c1c(N)sc2c1CCC(C)C2 (racemic)	159	> 2	–
CCOC(=O)c1c(N)sc2c1CCC(C)(C)C2	164	> 2	–
CCOC(=O)c1c(N)sc2c1CCN(C(=O)OCC)C2	258	> 2	–
Cc1ccc(C(=O)c2c(N)sc3c2CCSC3)cc1	92.5	> 2	–

SMILES	Activity [1] [%]	fold change (FC) [2]	other results
CCOC(=O)c1c(N)sc2c1CCN(C(=O)OCc1ccccc1)C2	184	> 2	–
Nc1sc2c(c1C(=O)c1ccccc1)CCN(S(=O)(=O)C1CC1)C2	131	> 2	–
Nc1sc2c(c1C(=O)c1ccc(Cl)cc1)CCN(C(=O)OCc1ccccc1)C2	155	> 2	–
CC1CCc2c(sc(N)c2C(=O)c2ccc(Cl)cc2)C1 (racemic)	128	> 2	–
CS(=O)(=O)N1CCc2c(sc(N)c2C(=O)c2ccc(Cl)cc2)C1	142	> 2	–
Nc1sc2c(c1C(=O)c1ccc(Cl)cc1)CCSC2	112	> 2	–
CCOC(=O)c1c(N)sc2c1CCN(C1CC1)C2	88.3	> 2	–
C=CCOC(=O)N1CCc2c(sc(N)c2C(=O)OCC)C1	232	> 2	–
Nc1sc2c(c1C(=O)c1ccc(Cl)cc1)CCOC2	177	> 2	–
CCOC(=O)c1c(N)sc2c1CCN(C(C)C)C2	82.2	> 2	–
CCOC(=O)c1c(N)sc2c1CCC(C(C)(C)C)C2 (racemic)	195	> 2	–
CCOC(=O)c1c(N)sc2c1CCOC2	86.5	> 2	–
CCOC(=O)N1CCc2c(sc(N)c2C(=O)c2ccccc2)C1	233	> 2	Activity (INS1(832/13)): Active; Activity [3]: Dose-Dependent Effect; Activity [4]: Active; fold change (FC) [5]: >2
CC(=O)N1CCc2c(sc(N)c2C(=O)c2ccccc2)C1	231	> 2	–
CCOC(=O)N1CCc2c(sc(N)c2C(=O)c2ccc(Cl)cc2)C1	222	> 2	–
CCOC(=O)c1c(N)sc2c1CCN(CC)C2	94.3	> 2	–
Cc1ccc(C(=O)c2c(N)sc3c2CCC(C)C3)cc1 (racemic)	242	> 2	Activity (INS1(832/13)): Active; Activity [3]: Dose-Dependent Effect; Activity [4]: Active; fold change (FC) [5]: >2
CCOC(=O)c1c(N)sc2c1CCC(C(C)C)C2 (racemic)	247	> 2	–
CC(=O)N1CCc2c(sc(N)c2C(=O)c2ccc(Cl)cc2)C1	239	> 2	–
CC(=O)N1CCc2c(sc(N)c2C(=O)c2ccc(C)cc2)C1	196	> 2	–
